Some results are limits rather than exact numbers.

Series [1] has as its target T1, PDE10 from rat striatum (Rattus norvegicus, UniProt Q9QYJ6).
T1 construct: 0.5 g of the isolated and frozen striatum was homogenised; from tissue; host or cells: rat striatum, ion-exchange FPLC fractions with PDE10 activity
T1 sequence (Q9QYJ6 1-794): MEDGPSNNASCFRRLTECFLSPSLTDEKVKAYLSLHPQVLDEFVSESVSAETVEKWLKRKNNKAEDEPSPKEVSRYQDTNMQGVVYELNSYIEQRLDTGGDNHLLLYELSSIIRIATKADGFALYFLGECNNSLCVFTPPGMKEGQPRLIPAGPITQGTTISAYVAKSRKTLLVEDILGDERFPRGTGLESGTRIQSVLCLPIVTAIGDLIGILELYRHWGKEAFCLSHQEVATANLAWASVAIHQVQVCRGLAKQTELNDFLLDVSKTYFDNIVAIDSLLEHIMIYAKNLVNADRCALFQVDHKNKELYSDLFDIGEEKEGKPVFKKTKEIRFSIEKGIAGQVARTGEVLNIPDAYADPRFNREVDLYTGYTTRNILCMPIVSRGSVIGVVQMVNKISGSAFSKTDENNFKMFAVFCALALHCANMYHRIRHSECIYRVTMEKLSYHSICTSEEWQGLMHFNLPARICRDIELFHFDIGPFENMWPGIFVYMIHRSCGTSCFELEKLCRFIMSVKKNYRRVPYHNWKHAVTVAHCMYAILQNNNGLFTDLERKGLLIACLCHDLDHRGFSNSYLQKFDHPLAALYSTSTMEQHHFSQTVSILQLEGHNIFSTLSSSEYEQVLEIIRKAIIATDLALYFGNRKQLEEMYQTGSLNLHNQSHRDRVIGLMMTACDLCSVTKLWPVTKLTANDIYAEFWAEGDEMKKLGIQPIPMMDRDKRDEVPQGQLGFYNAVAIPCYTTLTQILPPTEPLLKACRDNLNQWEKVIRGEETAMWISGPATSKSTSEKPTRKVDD
The series can be described thus: Inhibition of PDE10 from rat striatum. Particulars: 0.1 μM [3H]-cAMP, 37° C., 30 minutes. The series is classed as biochemical. The method, then:
(§1) Phosphodiesterase isoenzyme 10 (PDE10) activity was determined in preparations of rat, pig and guinea pig striatum respectively. Striatum from male Wistar rats (180-200 g), male hybrid pigs (150 kg) and male guinea pigs (CRL (HA), 500 g) respectively were collected and frozen at −70° C.
(§2) For the enzymatic testing of PDE10 activity 0.5 g of the isolated and frozen striatum was homogenised in 10 ml 50 mM Tris/Mg-buffer at 4° C. and centrifuged for one hour at 100000 g.
(§3) Nonspecific activity was tested without the enzyme. […] For determination of IC50 values the Hill-plot, 2-parameter-model, was used.

Series [2] has as its target T2, PDE10 from pig striatum (Sus scrofa, UniProt A0A287B941).
T2 construct: "Striatum from male hybrid pigs (150 kg)"
The series can be described thus: Inhibition of PDE10 from pig striatum. Particulars: 0.1 μM [3H]-cAMP, 37° C., 30 minutes. The class given is biochemical. The method, then:
Phosphodiesterase isoenzyme 10 (PDE10) activity was determined in preparations of human recombinant PDE10A and PDE10 from pig striatum, respectively.
Striatum from male hybrid pigs (150 kg) were collected and frozen at −70° C.
At the day of preparation 0.5 g striatum was homogenised in 10 ml 50 mM Tris/Mg-buffer at 4° C. and centrifuged for one hour at 100000 g.
as §3, §1, §2

Series [3] addresses PDE10 from guinea pig striatum (Cavia porcellus, UniProt A0A286XN47). The series can be described thus: Inhibition of PDE10 from guinea pig striatum. The class given is biochemical. Particulars: 0.1 μM [3H]-cAMP, 37° C., 30 minutes. The method, then: as §1, §2, §3
Series [4] concerns MK-801-induced psychosis. The series can be described thus: MK-801-induced psychosis: hyperactivity and stereotyped sniffing. Particulars: female Wistar rats, MK-801 0.1 mg/kg i.p. 10 min before test, compound 30 min prior, recorded 1 h; for dose that significantly reversed MK-801-induced hyperactivity / dose that significantly reversed MK-801-induced stereotyped sniffing: p.o. The series is classed as in vivo. The procedure: Female Wistar rats (Crl: (WI) BR, Charles River, Sulzfeld, Germany) weighing 150 to 180 g were used for the MK-801-induced psychosis. Animals were housed under standard conditions in groups of five on a 12 h light/dark cycle (light on at 0600 h) with ad libitum access to food (Pellets, ssniff M/R 15, Spezialdiät GmbH, Soest/Westfalen) and water.
MK-801 (dizocilpine, MW 337.37) was obtained by Tocris, distributed by Biotrend Chemikalien GmbH, Köln, Germany.
Hydroxyethylcellulose was solved in distilled water.
MK-801 was solved in saline so that an administration volume of 0.5 ml/100 g was reached. The suspensions and solution were placed on a magnetic stirrer before and during dosing procedures.
The behaviour induced by the NMDA antagonist MK-801 is generally accepted as a rat model of psychosis. MK-801 induces stereotyped sniffing, hyperactivity and ataxia in rats after intraperitoneal administration.
Locomotor activity of the rats was recorded by the MotiTest Apparatus (TSE, Bad Homburg, Germany). The test area consisted of a squared arena (45×45 cm) with protective plexiglass walls (20 cm of height) where rats could freely move. Horizontal movements were recorded by 32 infrared photocells arranged along the bottom of each wall of the arena. The activity [sec] was measured by the computer program “ActiMot” (TSE, Bad Homburg, Germany).
Stereotyped sniffing was scored by the experimenter every five minutes for one hour (12 intervals) according to the method described by Andine et al. (1999). The scores of the 12 intervals were summed up at the end of the recording time.
The day of experiment the female rats were placed in the laboratory and received the test compound or vehicle at the appropriate time prior to test. MK-801 0.1 mg/kg was intraperitoneally administered 10 minutes prior to test.
At the beginning of the test the rats were placed in the centre of the squared arena of the MotiTest apparatus. Behaviour of the rats was recorded for one hour. After each run animals were removed and the boxes thoroughly cleaned and dried.
Results were analysed by one way analysis of variance (ANOVA). Tukey test was used for individual comparison. P<0.05 was regarded as significant.

PDE10 from guinea pig striatum, sequence (A0A286XN47 1-773): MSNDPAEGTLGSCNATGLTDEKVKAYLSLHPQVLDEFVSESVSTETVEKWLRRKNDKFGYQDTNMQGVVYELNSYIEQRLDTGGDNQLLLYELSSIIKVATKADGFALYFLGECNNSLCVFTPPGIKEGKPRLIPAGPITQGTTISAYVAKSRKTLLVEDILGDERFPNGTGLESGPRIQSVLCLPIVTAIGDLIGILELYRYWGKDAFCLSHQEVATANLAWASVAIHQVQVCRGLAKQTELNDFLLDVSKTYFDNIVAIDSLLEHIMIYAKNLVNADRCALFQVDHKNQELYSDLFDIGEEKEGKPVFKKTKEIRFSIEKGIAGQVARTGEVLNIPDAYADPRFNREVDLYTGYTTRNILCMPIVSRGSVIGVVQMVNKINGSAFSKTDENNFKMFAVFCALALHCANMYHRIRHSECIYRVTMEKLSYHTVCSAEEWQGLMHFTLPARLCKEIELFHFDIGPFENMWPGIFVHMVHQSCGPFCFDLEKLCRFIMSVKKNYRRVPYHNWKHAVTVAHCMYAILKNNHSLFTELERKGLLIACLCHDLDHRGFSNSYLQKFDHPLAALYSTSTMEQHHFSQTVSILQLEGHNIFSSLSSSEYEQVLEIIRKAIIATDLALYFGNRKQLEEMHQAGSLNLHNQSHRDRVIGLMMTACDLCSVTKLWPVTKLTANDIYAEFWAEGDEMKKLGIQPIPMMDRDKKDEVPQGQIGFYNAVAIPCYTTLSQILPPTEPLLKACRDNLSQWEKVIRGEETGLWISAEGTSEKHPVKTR

Broadly, the IC50 is the midpoint of a concentration-inhibition curve. With “8-methoxy-4-methoxycarbonylamino-3-methyl-1-propyl-imidazo[1,5-a]pyrido[3,2-e]pyrazine [Example 62a]”, the values for the IC50 in series [1], in series [2] and in series [3] were 35 nM, 6 nM and 26 nM, respectively. For the same compound, in series [4], the “dose that significantly reversed MK-801-induced hyperactivity” value was 5 mg/kg. In series [4], the “dose that significantly reversed MK-801-induced stereotyped sniffing” value worked out at 5 mg/kg.
In the case of “4-amino-8-methoxy-3-methyl-1-phenyl-imidazo[1,5-a]pyrido[3,2-e]pyrazine [Example 10b]”, the IC50 was 5 nM in series [1] and 3 nM in series [2].
As to “4-(N-formyl-amino)-8-methoxy-3-methyl-1-propyl-imidazo[1,5-a]pyrido[3,2-e]pyrazine [Example 37b]”, the IC50 amounted to 50 nM in series [1] and 29 nM in series [2].
In series [3], “4-cyano-8-methoxy-3-methyl-1-propyl-imidazo[1,5-a]pyrido[3,2-e]pyrazine [Example 29a]” had an IC50 of 18 nM. Besides, the “dose that significantly reversed MK-801-induced stereotyped sniffing” value in series [4] is reported as at least 5 mg/kg.
As for “3,4-dimethyl-8-methoxy-1-phenyl-imidazo[1,5-a]pyrido[3,2-e]pyrazine [Example 47a]”, the IC50 in series [2] came to 6 nM; in series [3], 15 nM.
On to `CCCc1nc(C)c2c(N(S(C)(=O)=O)S(C)(=O)=O)nc3ccc(OC)nc3n12` [Example 70a, 4-(N,N-bis-methylsulfonyl)-amino-8-methoxy-3-methyl-1-propyl-imidazo[1,5-a]pyrido[3,2-e]pyrazine], for which the IC50 in series [1] was 72 nM. This lies in the double-digit nanomolar range.
Consider “4-amino-3-methyl-1-propyl-imidazo[1,5-a]pyrido[3,2-e]pyrazine [Example 4b]”, for which the figures for the IC50 in series [1] and in series [2] were 57 nM and 27 nM, respectively.
For the compound `CCCc1nc(C)c2n1-c1nc(OC)ccc1N(C(C)=O)C2` [Example 95a, 5-acetyl-8-methoxy-3-methyl-1-propyl-4,5-dihydro-imidazo[1,5-a]pyrido[3,2-e]pyrazine], 335 nM corresponded to half-maximal inhibition in series [1] (IC50). The same compound had an IC50 in series [2] of 222 nM. For the same compound, in series [4], the “dose that significantly reversed MK-801-induced hyperactivity” value amounted to 30 mg/kg and the “dose that significantly reversed MK-801-induced stereotyped sniffing” value was 30 mg/kg.
As a reminder, the melting point is the temperature, or range, at which the solid turns liquid. `CCc1nc(C)c2c(Cl)nc3cccnc3n12` [Intermediate A11] had a melting point of 117 to 120 °C. This compound also returned an IC50 in series [1] of 171 nM. Further, in series [2], the IC50 is 97 nM.
In the case of “4-ethoxycarbonylamino-8-methoxy-3-methyl-1-propyl-imidazo[1,5-a]pyrido[3,2-e]pyrazine [Example 63a]”, the IC50 in series [1] stood at 563 nM; in series [2], 189 nM.
In series [2], “3,4-dimethyl-8-(piperidin-1-yl)-methoxy-1-propyl-imidazo[1,5-a]pyrido[3,2-e]pyrazine [Example 55a]” displayed an IC50 of 14 nM. Besides, in series [4], the “dose that significantly reversed MK-801-induced hyperactivity” value is 30 mg/kg and the “dose that significantly reversed MK-801-induced stereotyped sniffing” value is recorded as 30 mg/kg.
In turn, “4-(N-acetyl-amino)-1-ethyl-8-methoxy-3-methyl-imidazo[1,5-a]pyrido[3,2-e]pyrazine [Example 40b]” showed an IC50 in series [1] of 220 nM. In other words, the sub-micromolar range.
For the compound “4-chloro-8-methoxy-3-methyl-1-propyl-imidazo[1,5-a]pyrido[3,2-e]pyrazine [Intermediate A1]”, the IC50 in series [1] came out at 8 nM; in series [2], 4 nM.
As for “8-methoxy-3-methyl-1-propyl-imidazo[1,5-a]pyrido[3,2-e]pyrazine [Example 35a]”, in series [1], the IC50 was determined as 61 nM. Moreover, 40 nM corresponded to half-maximal inhibition in series [2] (IC50). In addition, in series [4], the “dose that significantly reversed MK-801-induced hyperactivity” value came to 30 mg/kg and the “dose that significantly reversed MK-801-induced stereotyped sniffing” value is listed as at least 30 mg/kg.
As for “3,4-dimethyl-8-(2-propyl-4-methyl-imidazol-1-yl)-methoxy-1-propyl-imidazo[1,5-a]pyrido[3,2-e]pyrazine [Example 58a]”, the results for the IC50 in series [2] and in series [3] were 2 nM and 4 nM, respectively.
In the case of “4-(N-acetyl-amino)-8-methoxy-3-methyl-1-phenyl-imidazo[1,5-a]pyrido[3,2-e]pyrazine [Example 42b]”, the IC50 is 95 nM in series [1] and 41 nM in series [2].
“4-amino-1-(2-chloro-phenyl)-8-methoxy-3-methyl-imidazo[1,5-a]pyrido[3,2-e]pyrazine [Example 11b]” displayed an IC50 in series [2] of 0.5 nM. For the same compound, in series [4], the “dose that significantly reversed MK-801-induced hyperactivity” value is on record as at least 0.5 mg/kg and the “dose that significantly reversed MK-801-induced stereotyped sniffing” value is at least 0.5 mg/kg.
Consider “4-cyano-8-methoxy-3-methyl-1-ethyl-imidazo[1,5-a]pyrido[3,2-e]pyrazine [Example 30a]”, for which the IC50 in series [2] amounted to 20 nM. Further, in series [3], the midpoint of inhibition, the IC50, lay at 51 nM. For the same compound, in series [4], the “dose that significantly reversed MK-801-induced hyperactivity” value is recorded as at least 10 mg/kg and the “dose that significantly reversed MK-801-induced stereotyped sniffing” value was at least 10 mg/kg.
On to “8-methoxy-3-methyl-4-(N-propionyl-amino)-1-propyl-imidazo[1,5-a]pyrido[3,2-e]pyrazine [Example 43b]”, for which the IC50 in series [1] was found to be 2410 nM; in series [2], 896 nM.
Compound `CCCc1nc(C)c2n1-c1nc(OC)ccc1NC2` [Example 91a, 8-methoxy-3-methyl-1-propyl-4,5-dihydro-imidazo[1,5-a]pyrido[3,2-e]pyrazine] came in with a melting point of 157 to 160 °C. The compound further yielded an IC50 in series [1] of 159 nM. This compound also showed an IC50 in series [2] of 108 nM. Besides, in series [4] (i.p.), the “dose that significantly reduced MK-801-induced hyperactivity” value is listed as at least 15 mg/kg and the “dose that significantly reduced MK-801-induced stereotyped sniffing” value is recorded as at least 15 mg/kg.
Turning to “4-amino-8-methoxy-3-methyl-1-propyl-imidazo[1,5-a]pyrido[3,2-e]pyrazine [Example 1b]”, in series [4], the “dose that significantly reversed MK-801-induced hyperactivity” value was at least 10 mg/kg and the “dose that significantly reversed MK-801-induced stereotyped sniffing” value is listed as at least 10 mg/kg.
As for “8-methoxy-3-methyl-4-methylsulfonylamino-1-propyl-imidazo[1,5-a]pyrido[3,2-e]pyrazine [Example 69a]”, the IC50 in series [1] stood at 11 nM; in series [2], 5 nM; in series [3] it was 11 nM.
Take “1-ethyl-4-(N-formyl-amino)-8-methoxy-3-methyl-imidazo[1,5-a]pyrido[3,2-e]pyrazine [Example 36b]”: the figures for the IC50 in series [1] and in series [2] were 241 nM and 80 nM, respectively.

Values taken from patent US20090143392A1, “Methods of Treating Obesity and Metabolic Disorders” (ELBION GMBH, priority 2007, published 2009).
